In US11123316B2, “Imaging composition and uses thereof” (The University of Melbourne, priority 2014, dated 2021):

Test: Competition Study 2: ZrCl4(THF)2 added to mixture of DFOPhSO3H and DFOSqTaur, ESI-MS
Assay type: binding
Conditions: 50° C., 7 hours, FIG. 46
Procedure: A 3 mM stock solution of each ligand, DFOPhSO3H and DFOSqTaur, was prepared in a mixture of H2O and MeOH (concentrations were confirmed prior to dilution by UV-Vis Fe^3+ titration in H2O, 430 nm). A mixture of both solutions (25 uL each) was mixed thoroughly and heated to 50° C. A stock solution of ZrCl4(THF)2 in H2O/MeOH (3 mM) was also prepared, and 20 uL of this was added to the ligand mixture. The mixture was incubated at 50° C. for 7 hours.

For `CC(=O)N(O)CCCCCNC(=O)CCC(=O)N(O)CCCCCNC(=O)CCC(=O)N(O)CCCCCNc1c(NCCS(=O)(=O)O)c(=O)c1=O` [DFOSqTaur], the “Zr complex found in competition with DFOPhSO3H” value was “presence of the ZrDFOSqTaur complex”.
